The target of the assay is Histamine H2 receptor (Cavia porcellus, UniProt P47747). As to the kind of experiment: Histamine H2 receptor antagonism on the right atrium of the guinea pig. It is filed as functional, tissue-based, Cardiac atrium. Conditions: read-out: pA2 (converted).
Chain of Histamine H2 receptor (P47747 whole entry): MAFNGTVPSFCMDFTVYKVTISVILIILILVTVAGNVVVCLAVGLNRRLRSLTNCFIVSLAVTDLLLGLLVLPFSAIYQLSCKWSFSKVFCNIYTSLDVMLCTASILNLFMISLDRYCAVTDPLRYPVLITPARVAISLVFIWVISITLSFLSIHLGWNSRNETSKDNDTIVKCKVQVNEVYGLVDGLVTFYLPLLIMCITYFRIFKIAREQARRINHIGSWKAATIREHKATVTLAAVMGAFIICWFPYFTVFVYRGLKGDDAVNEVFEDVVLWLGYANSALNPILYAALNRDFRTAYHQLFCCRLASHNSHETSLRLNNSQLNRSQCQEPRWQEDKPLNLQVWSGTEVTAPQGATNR
As for `CC/N=C/Nc1ccc(-c2c[nH]cn2)cc1`, the Kb was 42.7 nM. As to `CC(C)CN/C=N/c1ccc(-c2c[nH]cn2)cc1`, the Kb was 5.25 nM. The value for `CCC(C)(C)N/C=N/c1ccc(-c2c[nH]cn2)cc1` was 7.59 nM. The value for `CCCCN/C=N/c1ccc(-c2c[nH]cn2)cc1` was 11.2 nM; that for `CCC(CC)N/C=N/c1ccc(-c2c[nH]cn2)cc1` was 31.6 nM; that for `CC(C)/N=C/Nc1ccc(-c2c[nH]cn2)cc1` was 28.2 nM. As for `CN/C=N/c1ccc(-c2c[nH]cn2)cc1`, the Kb was 1200 nM.

With `CCC(C)N/C=N/c1ccc(-c2c[nH]cn2)cc1` (centres undefined), the Kb was 14.1 nM. For `CC(C)(C)/N=C/Nc1ccc(-c2c[nH]cn2)cc1`, the Kb was 11.2 nM.

Values taken from ChEMBL document CHEMBL1125709, “Substituent effect on the stereochemistry of H2-receptor antagonists of the phenylformamidine series. A conformation-dependent mode of interaction with the H2 receptor” (J Med Chem, 1991).
